The assay addresses T1, HheG (Ilumatobacter coccineus, UniProt Z9P531QQL2, M65F, form not given).
T1 construct: homotetramer
T1 sequence (Z9P531QQL2 21-282 M65F): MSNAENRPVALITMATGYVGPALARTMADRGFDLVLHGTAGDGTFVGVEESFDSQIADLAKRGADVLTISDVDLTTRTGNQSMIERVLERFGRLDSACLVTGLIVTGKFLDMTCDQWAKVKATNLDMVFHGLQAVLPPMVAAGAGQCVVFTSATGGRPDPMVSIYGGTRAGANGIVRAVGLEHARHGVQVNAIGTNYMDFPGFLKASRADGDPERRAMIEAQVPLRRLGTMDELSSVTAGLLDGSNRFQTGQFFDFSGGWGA
The experiment in a line: BTB (bromothymol blue) pH-indicator assay, initial rates, Hill fit. Particulars: 2 mM MOPS pH 7.0. It is filed as biochemical. An excerpt: BTB (bromothymol blue) pH-indicator assay, initial rates, Hill fit on HheG

Each structure is given as a SMILES string. Read-outs that look alike come from different tables or passages of the source.

Consider `[N-]=[N+]=[N-]` [azide], for which the Km (cyclohexene oxide fixed at 100 mM, Hill coefficient n 3.94 ± 0.29, read-out: azide / K50) is 10.1 ± 0.21 mM.
For the molecule `C1CCC2OC2C1` (centres unmarked) [compound 1, cyclohexene oxide], where the note is “azide fixed at 60 mM, Hill coefficient n 3.33 ± 0.27, read-out: cyclohexene oxide / K50”, the Km came to 28 ± 0.64 mM.

These data come from paper PMC11536340, “A Dynamic Loop in Halohydrin Dehalogenase HheG Regulates Activity and Enantioselectivity in Epoxide Ring Opening” (ACS Catalysis, 2024).
